How the values were obtained:
[1] = target: ROR gamma ligand binding domain (Homo sapiens (Human), UniProt P51449); experiment: ROR gamma luciferase reporter assay (GAL4-ROR gamma LBD, HEK293 cells); type: cell-based; conditions: 48 hours treatment, read-out: RORγ luciferase Reporter assay: IC50 (nM) (in range)
Experimental: The Ligand Binding Domain (LBD) of ROR gamma was cloned into pFN26A (BIND) hRluc-neo Flexi vector (Promega) which expresses a fusion protein comprised of a DNA binding domain of the yeast GAL4 gene, a linker segment and ROR gamma ligand binding domain. For the reporter assay 0.02×10^6 HEK293 cells were seeded per well in a 96 well plate in complete media and incubated overnight in an incubator with 5% CO2 at 37° C. before transfection. Cells were then co-transfected with pFN26A hRluc-neo Flexi vector containing the LBD of ROR gamma and pGL4.35 [luc2P/9XGAL4 UAS/Hygro] Vector (Promega) in low serum media. Post transfection and recovery, cells were treated with the test compounds for 48 hours. The assay was terminated using the Bright-Glo Luciferase assay system from Promega and the Luminescence was measured using a luminescence reader. The luminescence values were used to calculate the potency of the compounds.

RORγ LBD = RORγ LBD (Homo sapiens (Human), UniProt P51449); experiment: ROR gamma radio-ligand binding assay (3H 25-Hydroxycholesterol competitive displacement, dextran charcoal method); conditions: for inhibition at 1 µM: 1 μM compound; for inhibition at 10 µM: 10 μM compound; for IC50: in range
RORγ LBD, sequence (P51449 268-518): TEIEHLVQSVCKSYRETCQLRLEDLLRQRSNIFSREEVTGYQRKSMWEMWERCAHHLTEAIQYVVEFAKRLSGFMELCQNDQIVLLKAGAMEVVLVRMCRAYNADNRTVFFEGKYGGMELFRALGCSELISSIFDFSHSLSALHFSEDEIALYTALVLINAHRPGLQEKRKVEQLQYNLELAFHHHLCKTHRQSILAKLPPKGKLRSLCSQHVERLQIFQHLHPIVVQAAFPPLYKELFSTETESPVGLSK
Experimental: Gene corresponding to the ligand binding domain of RORγ (247-497 amino acids) was sub-cloned into pGEX4T1 vector. Transformants of E. coli BL21 (DE3) containing pGEX4T1-RORγ (247-497) were grown to an OD of 0.8 at 37° C. and induced with 0.5 mM isopropyl-β-D-thiogalactopyranoside (IPTG) for 18 hours at 18° C. Cells were harvested and resuspended in 20 mM Tris-HCl (pH 8.5), 0.3 M NaCl, 10% Glycerol, 2 mM β-Me (β-Mercaptoethanol), 2 mM CHAPS, protease inhibitors, 0.6 mM PMSF and Lysozyme. Supernatant of lysate was passed through glutathione sepharose 4B affinity beads (GE health care) pre-equilibrated with 20 mM Tris-HCl (pH 8.5), 0.3 M NaCl, 10% Glycerol, 2 mM β-Me. RORγ was eluted using a gradient of reduced glutathione (3-20 mM). Fractions containing RORγ protein were pooled, concentrated and passed through Superdex 75 gel filtration (GE health care) column equilibrated with 20 mM Na-phosphate pH 8.0, 0.2 M NaCl, 10% glycerol. The peak fractions from gel filtration column were pooled and stored at −80° C. for Binding assay.
ROR gamma radioligand binding was performed using ^3H 25-Hydroxycholesterol in a competitive displacement assay using dextran charcoal method. Using 5 nM ^3H 25-Hydroxycholesterol with 300 ng RORγ LBD (in house expressed in E. coli) along with the compound were incubated in the binding buffer (50 mM HEPES, pH 7.5, 150 mM NaCl, 0.01% BSA and 5 mM MgCl2) for 30 min at room temperature. Then dextran-charcoal mixture (0.5% charcoal: 0.05% dextran) was used for separation and the supernatant was read on the Perkin Elmer Trilux Microbeta counter. Dose response curves were generated for 10 compound concentrations using GraphPad Prism software Version 5 (San Diego, Calif., USA) using non-linear regression curve fit for sigmoidal dose response (variable slope).

ROR gamma ligand binding domain, sequence (P51449 269-508): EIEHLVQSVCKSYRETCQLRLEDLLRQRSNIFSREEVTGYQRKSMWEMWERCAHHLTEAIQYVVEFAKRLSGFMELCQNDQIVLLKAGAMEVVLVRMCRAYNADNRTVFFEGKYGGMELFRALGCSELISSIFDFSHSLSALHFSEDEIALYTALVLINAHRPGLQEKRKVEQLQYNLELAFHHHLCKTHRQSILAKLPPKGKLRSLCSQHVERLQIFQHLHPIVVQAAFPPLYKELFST

| IC50 [1] [nM] | inhibition at 1 µM (RORγ LBD) [%] | inhibition at 10 µM (RORγ LBD) [%] | IC50 (RORγ LBD) [nM] | SMILES |
| --- | --- | --- | --- | --- |
| > 500 |  |  |  | CCS(=O)(=O)c1ccc(CC(=O)Nc2ccc3c(n2)CCC(C)(c2cc(OC)nc(C)n2)C3=O)cc1 (single isomer, unassigned) [compound 116, 2-(4-(ethylsulfonyl)phenyl)-N-(6-(6-methoxy-2-methylpyrimidin-4-yl)-6-methyl-5-oxo-5,6,7,8-tetrahydroquinolin-2-yl)acetamide] |
| > 500 |  |  |  | CCS(=O)(=O)c1ccc(CC(=O)Nc2ccc3c(n2)CCC(C)(c2nc(C)cn4ccnc24)C3=O)cc1 (single isomer, unassigned) [compound 117, 2-(4-(ethylsulfonyl)phenyl)-N-(6-methyl-6-(6-methylimidazo[1,2-a]pyrazin-8-yl)-5-oxo-5,6,7,8-tetrahydroquinolin-2-yl)acetamide] |
| < 100 |  |  |  | CCS(=O)(=O)c1ccc(CC(=O)Nc2ccc3c(n2)CCC(C)(c2nc(C)cn4ccnc24)C3=O)cc1 (single isomer, unassigned) [compound 118, 2-(4-(ethylsulfonyl)phenyl)-N-(6-methyl-6-(6-methylimidazo[1,2-a]pyrazin-8-yl)-5-oxo-5,6,7,8-tetrahydroquinolin-2-yl)acetamide] |
| > 500 |  |  |  | CCS(=O)(=O)c1ccc(CC(=O)Nc2ccc3c(n2)CCC(C)(c2cc(C)nc(C)n2)C3=O)nc1 (single isomer, unassigned) [compound 123, N-(6-(2,6-dimethylpyrimidin-4-yl)-6-methyl-5-oxo-5,6,7,8-tetrahydroquinolin-2-yl)-2-(5-(ethylsulfonyl)pyridin-2-yl)acetamide] |
|  | 79 | 110 | < 150 | CCS(=O)(=O)c1ccc(CC(=O)Nc2cc3c(cn2)C(=O)C(C)(c2cc(C)nc(C)n2)CC3)cc1 (centres unmarked) [compound 128, N-(7-(2,6-dimethylpyrimidin-4-yl)-7-methyl-8-oxo-5,6,7,8-tetrahydroisoquinolin-3-yl)-2-(4-(ethylsulfonyl)phenyl)acetamide] |
|  | 99 | 103 | < 150 | CCc1nc(C)cc(C2(C)CCc3nc(NC(=O)Cc4ccc(S(=O)(=O)CC)cc4)ccc3C2=O)n1 (centres unmarked) [compound 132, N-(6-(2-ethyl-6-methylpyrimidin-4-yl)-6-methyl-5-oxo-5,6,7,8-tetrahydroquinolin-2-yl)-2-(4-(ethylsulfonyl)phenyl)acetamide] |
|  | 96 | 109 | < 150 | CCc1cc(C2(C)CCc3nc(NC(=O)Cc4ccc(S(=O)(=O)CC)cc4)ccc3C2=O)nc(CC)n1 (centres unmarked) [compound 133, N-(6-(2,6-diethylpyrimidin-4-yl)-6-methyl-5-oxo-5,6,7,8-tetrahydroquinolin-2-yl)-2-(4-(ethylsulfonyl)phenyl)acetamide] |

More lines, now with the values behind:

| SMILES | IC50 [1] [nM] | inhibition at 1 µM (RORγ LBD) [%] | inhibition at 10 µM (RORγ LBD) [%] | IC50 (RORγ LBD) [nM] |
| --- | --- | --- | --- | --- |
| CCS(=O)(=O)c1ccc(CC(=O)Nc2ccc3c(n2)CCC(C)(c2nccn4c(C)cnc24)C3=O)cc1 (single isomer, unassigned) [compound 113, 2-(4-(ethylsulfonyl)phenyl)-N-(6-methyl-6-(3-methylimidazo[1,2-a]pyrazin-8-yl)-5-oxo-5,6,7,8-tetrahydroquinolin-2-yl)acetamide] | < 100 |  |  |  |
| CCS(=O)(=O)c1ccc(CC(=O)Nc2ccc3c(n2)CCC(C)(c2nccn4c(C)cnc24)C3=O)cc1 (single isomer, unassigned) [compound 114, 2-(4-(ethylsulfonyl)phenyl)-N-(6-methyl-6-(3-methylimidazo[1,2-a]pyrazin-8-yl)-5-oxo-5,6,7,8-tetrahydroquinolin-2-yl)acetamide] | > 500 |  |  |  |
| CCS(=O)(=O)c1ccc(CC(=O)Nc2ccc3c(n2)CCC(C)(c2cc(OC)nc(C)n2)C3=O)cc1 (single isomer, unassigned) [compound 115, 2-(4-(ethylsulfonyl)phenyl)-N-(6-(6-methoxy-2-methylpyrimidin-4-yl)-6-methyl-5-oxo-5,6,7,8-tetrahydroquinolin-2-yl)acetamide] | < 100 |  |  |  |
| CCS(=O)(=O)c1ccc(CC(=O)Nc2cc(C)c3c(n2)CCC(C)(c2cccc(OC)n2)C3=O)cc1 (centres unmarked) [Compound 19, 2-(4-(ethylsulfonyl)phenyl)-N-(6-(6-methoxypyridin-2-yl)-4,6-dimethyl-5-oxo-5,6,7,8-tetrahydroquinolin-2-yl)acetamide] |  | 98 | 98 | 150 to 300 |
| CCS(=O)(=O)c1ccc(CC(=O)Nc2cc(C)c3c(n2)CCC(C)(c2ccc4c(c2)OCO4)C3=O)cc1 (centres unmarked) [Compound 42, N-(6-(benzo[d][1,3]dioxol-5-yl)-4,6-dimethyl-5-oxo-5,6,7,8-tetrahydroquinolin-2-yl)-2-(4-(ethylsulfonyl)phenyl)acetamide] |  | 94 | 92 | < 150 |
| CCS(=O)(=O)c1ccc(CC(=O)Nc2cc(C)c3c(n2)CCC(C)(c2ccc4c(c2)ncn4C)C3=O)cc1 (centres unmarked) [Compound 43, N-(4,6-dimethyl-6-(1-methyl-1H-benzo[d]imidazol-5-yl)-5-oxo-5,6,7,8-tetrahydroquinolin-2-yl)-2-(4-(ethylsulfonyl)phenyl)acetamide] |  | 82 |  | < 150 |
| CCS(=O)(=O)c1ccc(CC(=O)Nc2ccc3c(n2)CCC(C)(n2nc(C)cc2C)C3=O)cc1 (centres unmarked) [Compound 46, N-(6-(3,5-dimethyl-1H-pyrazol-1-yl)-6-methyl-5-oxo-5,6,7,8-tetrahydroquinolin-2-yl)-2-(4-(ethylsulfonyl)phenyl)acetamide] |  | 56 | 92 | > 300 |
| CCS(=O)(=O)c1ccc(CC(=O)Nc2cc(C)c3c(n2)CCC(C)(n2cccn2)C3=O)cc1 (centres unmarked) [Compound 47] |  | 82 | 98 | < 150 |
| CCS(=O)(=O)c1ccc(CC(=O)Nc2cc(C)c3c(n2)CCC(C)(c2ncc(OC)cn2)C3=O)cc1 (centres unmarked) [Compound 61, 2-(4-(ethylsulfonyl)phenyl)-N-(6-(5-methoxypyrimidin-2-yl)-4,6-dimethyl-5-oxo-5,6,7,8-tetrahydroquinolin-2-yl)acetamide] |  | 90 | 74 | < 150 |
| CCS(=O)(=O)c1ccc(CC(=O)Nc2cc(C)c3c(n2)CCC(C)(c2cccnc2O)C3=O)cc1 (centres unmarked) [Compound 84, 2-(4-(ethylsulfonyl)phenyl)-N-(6-(2-hydroxypyridin-3-yl)-4,6-dimethyl-5-oxo-5,6,7,8-tetrahydroquinolin-2-yl)acetamide] |  | 82 | 100 | 150 to 300 |
| CCS(=O)(=O)c1ccc(CC(=O)Nc2cc(C)c3c(n2)CCC(C)(c2ncccc2O)C3=O)cc1 (centres unmarked) [Compound 85, 2-(4-(ethylsulfonyl)phenyl)-N-(6-(3-hydroxypyridin-2-yl)-4,6-dimethyl-5-oxo-5,6,7,8-tetrahydroquinolin-2-yl)acetamide] |  | 62 | 95 | > 300 |
| CCS(=O)(=O)c1ccc(CC(=O)Nc2cc(C)c3c(n2)CCC(C)(c2c(C)ccnc2O)C3=O)cc1 (centres unmarked) [Compound 86, 2-(4-(ethylsulfonyl)phenyl)-N-(6-(2-hydroxy-4-methylpyridin-3-yl)-4,6-dimethyl-5-oxo-5,6,7,8-tetrahydroquinolin-2-yl)acetamide] |  | 72 | 100 | < 150 |
| CCS(=O)(=O)c1ccc(CC(=O)Nc2ccc3c(n2)CC(C)(C)C(c2ncccc2O)C3=O)cc1 (centres unmarked) [Compound 87, 2-(4-(ethylsulfonyl)phenyl)-N-(6-(3-hydroxypyridin-2-yl)-7,7-dimethyl-5-oxo-5,6,7,8-tetrahydroquinolin-2-yl)acetamide] |  | 82 | 99 | 150 to 300 |
| CCc1cc(C2(C)CCc3nc(NC(=O)Cc4ccc(S(=O)(=O)CC)cc4)ccc3C2=O)nc(C)n1 (centres unmarked) [Compound-131] |  | 51 | 42 |  |
| CCS(=O)(=O)c1ccc(CC(=O)Nc2cc(C)c3c(n2)CCC(C)(c2cc(C)nc(OC)n2)C3=O)cc1 (centres unmarked) [Compound-135, 2-(4-(ethylsulfonyl)phenyl)-N-(6-(2-methoxy-6-methylpyrimidin-4-yl)-4,6-dimethyl-5-oxo-5,6,7,8-tetrahydroquinolin-2-yl)acetamide] |  | 90 | 104 | < 150 |

— patent US11229636B2, “Substituted tetrahydroquinolinone compounds as ROR gamma modulators” (Aurigene Discovery Technologies Limited, priority 2015, dated 2022)
